Columns and labels:
A549 cell line = experiment: Growth inhibition, A549 cell line; type: cell-based; settings: A549 cells; Table 1
Procedure: (§1) The human ovarian cells were added at a density of 1×10^4 cells per well to 24-well tissue culture trays (Falcon Plastic, Becton Dickenson, Lincon Park, N.J., USA) and allowed to grow for 72 h before addition of the Ru(II) arene complexes. Stock solutions of the ruthenium compounds were made up fresh in deionised water and sonicated to ensure complete dissolution. These stock solutions were diluted with media to give final concentrations ranging between 0.1 and 100 μM. All compounds were evaluated at each concentration in duplicate wells, and complete assays were repeated a minimum of three times. Cisplatin or carboplatin was employed as a positive and comparative control in each experiment. After 24-hours exposure the drug-containing medium was removed, the cells washed with phosphate buffered saline (PBS) and fresh medium was added. Cell number was assessed after a further 72 h growth using a Coulter counter (Coulter Electronics Ltd, Luton, UK) and the IC50 values (concentration of drug causing 50% growth inhibition) calculated by linear regression analysis comparing the inhibitory effects of the drugs against the growth of untreated cells.
(§2) Using the above protocol, a number of compounds of the invention were tested on A2780 ovarian cancer cell line, on an A2780 ovarian cancer cell line resistant to cis-platin (A2780^CIS), and on an A2780 ovarian cancer cell line resistant to adriamycin (A2780^AD). Some of the compounds were tested on an A549 cell line.

[1] = test system: A2780 ovarian cancer cell line; experiment: Growth inhibition of human ovarian cancer cells, 24 h exposure, Coulter cell count; type: cell-based
Procedure: as §1
(§3) The cell lines and methods used are also described in Aird et al, Br. J. Cancer, (2002), 86, 1652–1657.
as §2

[2] = test system: A2780 ovarian cancer cell line resistant to cis-platin (A2780^CIS); experiment: Growth inhibition, cis-platin resistant ovarian line; type: cell-based, human; settings: cis-platin resistant A2780 relative to A2780
Procedure: as §1, §3, §2

[3] = test system: A2780 ovarian cancer cell line resistant to adriamycin (A2780^AD); experiment: Growth inhibition, adriamycin resistant ovarian line; type: cell-based, human; settings: adriamycin resistant A2780 relative to A2780
Procedure: as §1, §3, §2

[4] = 24 h exposure, cell number after further 72 h growth, Table 1
[5] = comparison with 1,2-diaminoethane analogues

| Structure (SMILES) | IC50 (A549 cell line) | IC50 [1, 4] | A2780^CIS Fold resistance ([2]; Table 1) | A2780^CIS Fold resistance [2, 5] | A2780^AD fold resistance ([3]; Table 1) | A2780^AD fold resistance [3, 5] | IC50 [1, 5] |
| --- | --- | --- | --- | --- | --- | --- | --- |
| Nc1ccc2c(c1N)C(=O)c1ccccc1C2=O.[Cl-].[Cl][Ru+].c1ccc2c(c1)CCC2 [Example 8, [(η^6-indan)Ru(1,2-diaminoanthraquinone)Cl]Cl] | 48 µM | 15 µM |  |  |  |  |  |
| F[P-](F)(F)(F)(F)F.[Cl][Ru-]1[NH2+]c2ccccc2[NH2+]1.c1ccc(-c2ccccc2)cc1 [EX 1, [(η^6-Biphenyl)Ru(o-phenylenediamine)Cl]PF6] |  | 5 µM | 1 fold | 1 fold | 0.8 fold | 0.8 fold | 5 µM |
| F[P-](F)(F)(F)(F)F.Nc1ccccc1N.[Cl][Ru+].c1ccc2c(c1)Cc1ccccc1C2 [EX 3, [(η^6-dihydroanthracene)Ru(o-phenylenediamine)Cl]PF6] |  | 7 µM | 5 fold | 5 fold | 2 fold | 2 fold | 7 µM |
| F[P-](F)(F)(F)(F)F.Nc1ccc([N+](=O)[O-])cc1N.[Cl][Ru+].c1ccc2c(c1)CCCC2 [Example 7, [(η^6-1,2,3,4-tetrahydronaphthalene)Ru(1,2-diamino-4-nitrobenzene)Cl]PF6] | 148 µM | 59 µM |  |  |  |  |  |
| F[P-](F)(F)(F)(F)F.F[P-](F)(F)(F)(F)F.Nc1ccc(-c2ccc(N)c(N)c2)cc1N.[Cl][Ru+].[Cl][Ru+].c1ccc(-c2ccccc2)cc1.c1ccc(-c2ccccc2)cc1 [EX 2, {[(η^6-Biphenyl)Ru(diaminobenzidine)Cl]PF6}2] |  | 52 µM |  |  |  |  |  |
| Cc1ccc(N)c(N)c1.F[P-](F)(F)(F)(F)F.[Cl][Ru+].c1ccc2c(c1)CCC2 [EX 5, [(η^6-indan)Ru(3,4-diaminotoluene)Cl]PF6] |  | 4 µM |  |  |  |  |  |
| Cc1ccc(C(C)C)cc1.F[P-](F)(F)(F)(F)F.Nc1ccccc1N.[Cl][Ru+] [EX 6, [(η^6-p-cymene)Ru(o-phenylenediamine)Cl]PF6] |  | 11 µM | 1 fold | 1 fold | 0.6 fold | 0.6 fold | 11 µM |
| Nc1ccc2c(c1N)C(=O)c1ccccc1C2=O.[Cl-].[Cl][Ru+].c1ccc2c(c1)CCCC2 [Example 9, [(η^6-1,2,3,4-tetrahydronaphthalene)Ru(1,2-diaminoanthraquinone)Cl]Cl] | 61 µM | 37 µM |  |  |  |  |  |
| F[P-](F)(F)(F)(F)F.Nc1cccc(O)c1N.[Cl][Ru+].c1ccc(-c2ccccc2)cc1 [EX 4, [(η^6-Biphenyl)Ru(2,3-diaminophenol)Cl]PF6] |  | 32 µM |  |  |  |  |  |
